Measurements published in patent US4808411A, “Antibiotic-polymer compositions” (Abbott Laboratories, priority 1987, dated 1989).
Converted amounts (≈) assume the structure as drawn.

Assays:
[1] = Solubility of drug after stirring material providing approx. 20 mg/mL active drug for 24 hours in water (buffer for pure drugs); type: physicochemical
[2] = Bioavailability of 6-O-methylerythromycin in dogs (Example 12); type: in vivo; conditions: dog, blood, po, 250 mg 6-O-methylerythromycin, fasted, histamine
Procedure: All dogs were fasted overnight, and histamine was administered one hour prior to dosing with the test composition. […] Blood samples were drawn and assayed using a standard microbiological assay. All dogs were fed 12 hours after dosing.

Work on `CC[C@H]1OC(=O)[C@H](C)[C@@H](O[C@H]2C[C@@](C)(OC)[C@@H](O)[C@H](C)O2)[C@H](C)[C@@H](O[C@@H]2O[C@H](C)C[C@H](N(C)C)[C@H]2O)[C@](C)(OC)C[C@@H](C)C(=O)[C@H](C)[C@@H](O)[C@]1(C)O` [6-O--Methyl-ery, 6-O-methylerythromycin] yielded a solubility at 24 h ([1]; pH 6.2, aqueous buffer) of 7000 µg/mL (≈ 9360 µM), a solubility at 24 h ([1]; pH 7, aqueous buffer) of 1650 µg/mL (≈ 2210 µM) and a solubility at 24 h ([1]; pH 7.98, aqueous buffer) of 134 µg/mL (≈ 179 µM). The AUC(0-t) at 8 h [2] was 43500 ng·h/mL, the Cmax [2] was 5370 ng/mL and the Tmax [2] was 1.33 h.
Work on `CC[C@H]1OC(=O)[C@H](C)[C@@H](O[C@H]2C[C@@](C)(OC)[C@@H](O)[C@H](C)O2)[C@H](C)[C@@H](O[C@@H]2O[C@H](C)C[C@H](N(C)C)[C@H]2O)[C@](C)(O)C[C@@H](C)C(=O)[C@H](C)[C@@H](O)[C@]1(C)O` [Erythromycin, erythromycin] yielded a solubility at 24 h ([1]; pH 7.72, aqueous buffer) of 12200 µg/mL (≈ 16600 µM) and a solubility at 24 h ([1]; pH 8.24, aqueous buffer) of 2120 µg/mL (≈ 2890 µM).
